# Literature values as cited in patent US10201537B2 (INFLAMMATORY RESPONSE RESEARCH, INC., priority 2013, dated 2019).
# Read-outs that look alike come from different tables or passages of the source.
# B1: filgrastim (protein, chains of the INN, looked up)
# chain: MTPLGPASSLPQSFLLKCLEQVRKIQGDGAALQEKLCATYKLCHPEELVLLGHSLGIPWAPLSSCPSQALQLAGCLSQLHSGLFLYQGLLQALEGISPELGPTLDTLQLDVADFATTIWQQMEELGMAPALQPTQGAMPAFASAFQRRAGGVLVASHLQSFLEVSYRVLRHLAQP
# modifications: N-terminal methionine, non-glycosylated
# notes: protein stimulating granulocyte and macrophage proliferation and differentiation
# Columns and labels:
# [1] = tested on: humans
# [2] = tested on: histamine induced wheal and flare; settings: levocetirizine 5 mg per day vs fexofenadine 180 mg per day
# [3] = tested on: eosinophil migration
# [4] = tested on: IL-4, IL-6, and IL-8
# [5] = in vivo
# [6] = tested on: adult patients
# [7] = for time to steady state level: montelukast, oral
# [8] = warfarin, theophylline, digoxin, terfenadine, oral contraceptives, prednisone
# [9] = tested on: influenza; settings: human, in vivo
# [10] = tested on: granulocyte and macrophage proliferation; settings: in vivo
molecule,measurement,setting,value
O=C(O)COCCN1CCN([C@H](c2ccccc2)c2ccc(Cl)cc2)CC1 [Levocetirizine],principal side effect at higher doses,[1]; higher doses,Sedation
same,doses safely administered in humans,[1]; in vivo,up to 30 mg/day
same,effectiveness versus fexofenadine,[2],more effective than fexofenadine
same,eosinophil migration,[3],decrease eosinophil migration
same,"inflammatory mediators IL-4, IL-6, and IL-8",[4],decrease inflammatory mediators
same,time to steady state level,[5],40 h
CC(C)(O)c1ccccc1CC[C@@H](SCC1(CC(=O)O)CC1)c1cccc(/C=C/c2ccc3ccc(Cl)cc3n2)c1 [Montelukast],doses without clinically important adverse experiences,"[6]; adult patients, 22 weeks",up to 200 mg/day
same,doses without clinically important adverse experiences,"[6]; short-term studies, approximately one week",up to 900 mg/day
same,plasma concentration area under the curve profile,[7]; IV montelukast 7 mg vs 10 mg oral tablet,comparable to the approved 10 mg oral montelukast tablet
same,absorption,[7]; in vivo,rapidly absorbed
same,linear pharmacokinetics to dose,[7]; in vivo,≤ 50 mg
same,time to peak plasma concentration,[7]; in vivo,3 to 4 h
same,time to steady state level,[7],less than two days
same,time to steady state level,[7]; listed as montelukast,within two days
same,effect of a standard meal on oral bioavailability and Cmax,[7]; standard meal,not affected by a standard meal
same,drug interactions,[8],no drug interactions
CCOC(=O)C1=C[C@@H](OC(CC)CC)[C@H](NC(C)=O)[C@@H](N)C1 [oseltamivir],influenza related lower respiratory tract complications,[9],did not appear to reduce influenza related lower respiratory tract complications
B1,serious reactions,[10],"splenic rupture, ARDS, thrombocytopenia, cutaneous vasculitis, and hemorrhage"
